The record followed here is patent publication US20220324835A1 (Nurix Therapeutics, Inc., priority 2018, published 2022).

Assay [1] concerns the target T1, Cbl-b (Homo sapiens, UniProt Q13191). The experiment in a line: Cbl-b inhibition assay (Cbl-b activity assay, FRET, Biological Example 1; 100 mM NaCl, 60 nM Src kinase). It counts as biochemical. The conditions noted are these: upper bound stated in text lists; read-out: IC50 values in the Cbl-b inhibition assay of Biological Example 1. The method in brief: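 Binding-based Cbl-b activity assay. Src-phosphorylated, N-terminally biotin-Avi-tagged Cbl-b recruits labelled UbcH5B-Ub, and proximity to streptavidin-terbium yields FRET.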

Assay [2] deals with T-cell. The experiment in a line: IL-2 secretion from T-cells co-stimulated with anti-CD3 and anti-CD28 antibody (Biological Example 2). The conditions noted are these: Homo sapiens, T-cell, fold change over baseline (anti-CD3/anti-CD28 stimulated T-cells without inhibitor), read-out: IL-2 secretion Anti-CD3/Anti-CD28 stimulation; for fold induction at 0.3 µM: 0.3 μM Cbl-b inhibitor; for fold induction at 1 µM: 1 μM Cbl-b inhibitor. It counts as cell-based, human. The method in brief:
(§1)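 T-cells were stimulated with anti-CD3 antibody alone or with anti-CD28 antibody, in the presence or absence of Cbl-b inhibitor. IL-2 secretion or CD25 surface staining was measured, and values expressed as fold over the uninhibited baseline […].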

Assay [3] concerns T-cell. As to the kind of experiment: IL-2 secretion from T-cells stimulated with anti-CD3 antibody alone (Biological Example 2). As to conditions: Homo sapiens, T-cell; 1 μM Cbl-b inhibitor; fold change over baseline (anti-CD3/anti-CD28 stimulated T-cells without inhibitor); read-out: IL-2 secretion Anti-CD3 stimulation. Format: cell-based, human.
Assay [4] has as its system T-cell. As to the kind of experiment: CD25 cell surface staining on T-cells co-stimulated with anti-CD3 and anti-CD28 antibody (Biological Example 2). The conditions noted are these: Homo sapiens, T-cell, fold change over baseline (anti-CD3/anti-CD28 stimulated T-cells without inhibitor), read-out: CD25 staining Anti-CD3/Anti-CD28 stimulation; for fold induction at 0.3 µM: 0.3 μM Cbl-b inhibitor; for fold induction at 1 µM: 1 μM Cbl-b inhibitor. It counts as cell-based, human. The method in brief:
as §1

In assay [5] the test system is T-cell. The experiment in a line: CD25 cell surface staining on T-cells stimulated with anti-CD3 antibody alone (Biological Example 2). Format: cell-based, human. As to conditions: Homo sapiens, T-cell; 1 μM Cbl-b inhibitor; fold change over baseline (anti-CD3/anti-CD28 stimulated T-cells without inhibitor); read-out: CD25 staining Anti-CD3 stimulation.
Assay [6] has as its target T1, Cbl-b. As to the kind of experiment: Cbl-b activity assay (Cbl-b inhibition assay), TR-FRET of Cbl-b interaction with UbcH5B-Ub. Format: biochemical. As to conditions: assay buffer with 100 mM NaCl, 60 nM Src kinase; read-out: Cbl-b activity IC50. The method in brief: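 UbcH5B (C85K) conjugated to N-terminally Bodipy-Fluorescein-labeled ubiquitin served as the fluorescent partner. After compound preincubation, Src kinase (60 nM) with 1 mM ATP and 5 mM MgCl2 (final) was added for 1.5 h, followed by a further 1 h incubation. Some values were obtained with 50 mM NaCl and 30 nM Src.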

Structures are written as SMILES. Some results are limits rather than exact numbers.

T1 sequence (Q13191 36-427): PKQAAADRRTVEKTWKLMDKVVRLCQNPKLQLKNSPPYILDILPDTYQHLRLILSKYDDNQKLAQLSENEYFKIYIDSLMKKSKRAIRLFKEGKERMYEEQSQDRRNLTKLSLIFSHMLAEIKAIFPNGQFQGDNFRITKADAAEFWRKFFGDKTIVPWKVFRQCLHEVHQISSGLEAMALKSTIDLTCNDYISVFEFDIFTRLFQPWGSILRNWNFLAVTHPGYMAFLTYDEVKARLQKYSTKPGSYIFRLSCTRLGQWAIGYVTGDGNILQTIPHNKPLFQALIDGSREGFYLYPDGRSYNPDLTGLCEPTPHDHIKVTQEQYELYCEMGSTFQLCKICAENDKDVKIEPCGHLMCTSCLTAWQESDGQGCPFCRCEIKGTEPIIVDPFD

In the case of `Cn1cnnc1[C@H](F)C1(c2cccc(N3Cc4c(cc(CN5C6CCCC5CC6)cc4C(F)(F)F)C3=O)c2)COC1` [Example 675b, 6-((8-azabicyclo[3.2.1]octan-8-yl)methyl)-2-(3-(3-((R)-fluoro(4-methyl-4H-1,2,4-triazol-3-yl)methyl)oxetan-3-yl)phenyl)-4-(trifluoromethyl)isoindolin-1-one], the half-maximal inhibitory concentration (IC50) in assay [1] was no more than 0.1 µM; in assay [6] it was less than 0.1 µM. The fold induction at 0.3 µM is greater than 7.5 in assay [2] and 1.31 to 1.5 in assay [4]. Further, the fold induction at 1 µM was greater than 7.5 in assay [2], greater than 0.201 in assay [3], 1.31 to 1.5 in assay [4] and greater than 1 in assay [5].
Turning to `Cc1cc(C(=O)Nc2cccc(C3(C(F)(F)c4nncn4C)COC3)c2)nc(C2CC2)n1` [Example 676, 2-cyclopropyl-N-(3-(3-(difluoro(4-methyl-4H-1,2,4-triazol-3-yl)methyl)oxetan-3-yl)phenyl)-6-methylpyrimidine-4-carboxamide], the half-maximal inhibitory concentration (IC50) in assay [1] is no more than 0.1 µM; in assay [6] it was less than 0.1 µM. Also, the fold induction at 0.3 µM in assay [2] lay in the range of 2.51 to 5; in assay [4], 1.01 to 1.3. Moreover, the fold induction at 1 µM in assay [2] is 5 to 7.5; in assay [3], 0.101 to 0.15; in assay [4], 1.31 to 1.5; in assay [5], 0.801 to 1.
With `Cc1cc2c(c(C3CC3)n1)CN(c1cccc(C3(C(F)(F)c4nncn4C)COC3)c1)C2=O` [Example 677, 4-cyclopropyl-2-(3-(3-(difluoro(4-methyl-4H-1,2,4-triazol-3-yl)methyl)oxetan-3-yl)phenyl)-6-methyl-2,3-dihydro-1H-pyrrolo[3,4-c]pyridin-1-one], the half-maximal inhibitory concentration (IC50) in assay [1] was no more than 1 µM; in assay [6], 0.301 to 1 µM. The results for the fold induction at 0.3 µM in assay [2] and in assay [4] were 1.01 to 2.5 and 1.01 to 1.3, respectively. Moreover, the fold induction at 1 µM is 1.01 to 2.5 in assay [2], 0.051 to 0.1 in assay [3], 1.01 to 1.3 in assay [4] and 0.601 to 0.8 in assay [5].
In the case of `Cn1cnnc1C(F)(F)C1(c2cccc(N3Cc4c(cc(CN5CC(F)C5)cc4C(F)(F)F)C3=O)c2)COC1` [Example 679, 2-(3-(3-(difluoro(4-methyl-4H-1,2,4-triazol-3-yl)methyl)oxetan-3-yl)phenyl)-6-((3-fluoroazetidin-1-yl)methyl)-4-(trifluoromethyl)isoindolin-1-one], the results for the IC50 in assay [1] and in assay [6] were no more than 0.1 µM and less than 0.1 µM, respectively. Besides, the fold induction at 0.3 µM in assay [2] lay within 2.51 to 5; in assay [4], 1.01 to 1.3. Moreover, the fold induction at 1 µM in assay [2] is 5 to 7.5; in assay [3], 0.101 to 0.15; in assay [4], 1.01 to 1.3; in assay [5], greater than 1.
Regarding `C[C@H](Cc1nncn1C)c1cc(C2CC2)nc(N2Cc3c(cccc3C(F)(F)F)C2=O)c1` [Example 680, (R)-2-(6-cyclopropyl-4-(1-(4-methyl-4H-1,2,4-triazol-3-yl)propan-2-yl)pyridin-2-yl)-4-(trifluoromethyl)isoindolin-1-one], the half-inhibitory concentration (IC50) in assay [1] is no more than 0.1 µM; in assay [6], less than 0.1 µM. Besides, the fold induction at 0.3 µM is 1.01 to 2.5 in assay [2] and 1.01 to 1.3 in assay [4]. The fold induction at 1 µM in assay [2] was in the range of 2.51 to 5; in assay [3], 0.101 to 0.15; in assay [4] it was 1.01 to 1.3; in assay [5], 0.801 to 1.
`C[C@H](Cc1nncn1C)c1cc(N2Cc3c(cccc3C(F)(F)F)C2=O)nc(C2(C)CC2)c1` [Example 681, (R)-2-(4-(1-(4-methyl-4H-1,2,4-triazol-3-yl)propan-2-yl)-6-(l-methylcyclopropyl)pyridin-2-yl)-4-(trifluoromethyl)isoindolin-1-one]: the values for the IC50 in assay [1] and in assay [6] were no more than 1 µM and 0.301 to 1 µM, respectively. The fold induction at 0.3 µM lay in the range of 1.01 to 2.5 in assay [2] and 1.01 to 1.3 in assay [4]. Moreover, the fold induction at 1 µM is 1.01 to 2.5 in assay [2], 0.051 to 0.1 in assay [3], 1.01 to 1.3 in assay [4] and less than 0.6 in assay [5].
